Data from ChEMBL document CHEMBL3817815, “Impact of Binding Site Comparisons on Medicinal Chemistry and Rational Molecular Design” (J Med Chem, 2016).
Values after ≈ are worked out from the molar mass of the structure shown.

Columns and labels:
[1] = target: T1, Replicase polyprotein 1ab (Severe acute respiratory syndrome-related coronavirus, UniProt P0C6X7); assay: Inhibition of SARS coronavirus main proteinase 3C-like protease
Beta-secretase 1 = Beta-secretase 1 (Homo sapiens, UniProt P56817); assay: Inhibition of BACE1 (unknown origin)
[2] = target: T1, Replicase polyprotein 1ab; assay: Binding affinity to SARS coronavirus main proteinase 3C-like protease
[3] = target: T2, Prostaglandin G/H synthase 1 (Homo sapiens, UniProt P23219); assay: Inhibition of human recombinant COX1 expressed in Sf9 cell microsomes assessed as reduction in conversion of arachidonic acid to PGE2 at 250 uM incubated for 5 mins by HTRF assay
Acetylcholinesterase = Acetylcholinesterase (Homo sapiens, UniProt P22303); assay: Inhibition of AChE (unknown origin)
[4] = tested on: Mycobacterium tuberculosis; assay: Inhibition of Mycobacterium tuberculosis InhA at 80 uM using DD-CoA and NADH
[5] = tested on: Mycobacterium tuberculosis; assay: Antimicrobial activity against Mycobacterium tuberculosis str. Erdman assessed as complete inhibition of growth incubated for 14 days by microplate assay; type: functional; conditions: Erdman = ATCC 35801, 336 h
[6] = target: T2, Prostaglandin G/H synthase 1; assay: Inhibition of human recombinant COX1 expressed in Sf9 cell microsomes assessed as reduction in conversion of arachidonic acid to PGE2 incubated for 5 mins by HTRF assay

T2 sequence (P23219 whole entry): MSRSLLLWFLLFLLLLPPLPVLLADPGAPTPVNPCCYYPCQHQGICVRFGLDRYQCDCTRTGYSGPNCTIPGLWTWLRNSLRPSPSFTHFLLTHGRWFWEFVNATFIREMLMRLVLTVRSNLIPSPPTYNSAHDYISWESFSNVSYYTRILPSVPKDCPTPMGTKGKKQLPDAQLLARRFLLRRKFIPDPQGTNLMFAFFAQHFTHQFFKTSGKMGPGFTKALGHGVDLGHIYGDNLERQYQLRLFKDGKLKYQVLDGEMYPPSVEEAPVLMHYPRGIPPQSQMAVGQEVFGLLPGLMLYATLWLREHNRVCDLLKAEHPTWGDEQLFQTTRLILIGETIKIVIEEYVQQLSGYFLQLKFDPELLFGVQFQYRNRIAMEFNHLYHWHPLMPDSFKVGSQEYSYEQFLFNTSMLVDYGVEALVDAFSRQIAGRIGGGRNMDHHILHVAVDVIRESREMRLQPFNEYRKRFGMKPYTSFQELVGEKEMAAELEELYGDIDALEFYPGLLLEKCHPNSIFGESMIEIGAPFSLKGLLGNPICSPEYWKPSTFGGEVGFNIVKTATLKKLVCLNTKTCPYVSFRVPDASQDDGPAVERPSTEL
Chain of Beta-secretase 1 (P56817 whole entry): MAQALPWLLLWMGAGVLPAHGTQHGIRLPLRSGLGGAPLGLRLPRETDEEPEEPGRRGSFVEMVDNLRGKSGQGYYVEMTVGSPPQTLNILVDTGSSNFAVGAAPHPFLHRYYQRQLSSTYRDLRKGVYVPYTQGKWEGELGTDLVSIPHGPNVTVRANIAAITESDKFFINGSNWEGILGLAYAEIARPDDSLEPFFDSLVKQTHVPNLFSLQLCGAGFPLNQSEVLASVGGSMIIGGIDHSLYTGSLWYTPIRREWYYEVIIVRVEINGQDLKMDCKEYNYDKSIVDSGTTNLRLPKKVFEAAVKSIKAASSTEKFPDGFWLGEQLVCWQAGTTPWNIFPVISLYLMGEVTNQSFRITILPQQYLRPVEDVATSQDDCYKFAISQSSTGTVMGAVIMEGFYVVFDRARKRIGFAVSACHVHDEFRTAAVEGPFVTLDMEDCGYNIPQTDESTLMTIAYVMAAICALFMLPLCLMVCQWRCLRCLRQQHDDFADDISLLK
Chain of Acetylcholinesterase (P22303 whole entry): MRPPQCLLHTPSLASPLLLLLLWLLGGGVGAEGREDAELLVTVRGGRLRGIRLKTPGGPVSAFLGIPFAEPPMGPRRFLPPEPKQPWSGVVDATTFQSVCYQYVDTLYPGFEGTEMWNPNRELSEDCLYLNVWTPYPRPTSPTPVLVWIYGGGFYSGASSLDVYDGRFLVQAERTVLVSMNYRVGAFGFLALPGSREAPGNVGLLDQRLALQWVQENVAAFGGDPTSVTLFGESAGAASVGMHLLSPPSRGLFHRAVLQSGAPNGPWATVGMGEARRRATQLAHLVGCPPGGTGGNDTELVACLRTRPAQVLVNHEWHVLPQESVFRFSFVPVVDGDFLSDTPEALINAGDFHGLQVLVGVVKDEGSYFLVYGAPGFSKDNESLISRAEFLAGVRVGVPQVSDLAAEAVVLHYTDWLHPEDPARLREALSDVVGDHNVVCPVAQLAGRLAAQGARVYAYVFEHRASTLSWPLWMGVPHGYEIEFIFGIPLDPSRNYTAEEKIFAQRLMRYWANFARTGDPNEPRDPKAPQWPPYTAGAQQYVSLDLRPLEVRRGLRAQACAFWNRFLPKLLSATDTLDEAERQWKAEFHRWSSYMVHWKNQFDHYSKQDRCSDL

SMILES	IC50 [1]	Ki [2]	further results
CC(=O)N[C@@H](CC(N)=O)C(=O)N[C@@H](CO)C(=O)N[C@H](C(=O)N[C@@H](CC(=O)O)C(=O)N[C@H](C=O)CCC(N)=O)[C@@H](C)O	20 µM		
COc1cc2ncnc(Nc3ccc(F)c(Cl)c3)c2cc1OCCCN1CCOCC1 [GEFITINIB]			IC50 (Beta-secretase 1): 20 µM
CC(=O)N[C@@H](CCC(=O)O)C(=O)N[C@@H](CO)C(=O)N[C@H](C(=O)N[C@@H](CC(C)C)C(=O)N[C@H](C=O)CCC(N)=O)[C@@H](C)O	7.5 µM	8 µM	
CC(C)(Oc1ccc(Cl)cc1)C(=O)O			inhibition [3]: 14%
Cc1ccc(Nc2nccc(N(C)c3ccc4c(C)n(C)nc4c3)n2)cc1S(N)(=O)=O [PAZOPANIB]			IC50 (Acetylcholinesterase): 0.93 µM
CCN(CC)C(=O)/C(C#N)=C/c1cc(O)c(O)c([N+](=O)[O-])c1 [ENTACAPONE]			inhibition [4]: 47%; MIC99 [5]: 260 µM (≈ 79.4 µg/mL)
CC(=O)N[C@@H](CC(=O)O)C(=O)N[C@@H](CO)C(=O)N[C@H](C(=O)N[C@@H](CC(C)C)C(=O)N[C@H](C=O)CCC(N)=O)[C@@H](C)O	10 µM		
O=C(O)c1ccccc1O [SALICYLIC ACID]			IC50 [6]: 500 µM
Cc1ccc(C)c(OCCCC(C)(C)C(=O)O)c1			inhibition [3]: 18%
CC(=O)N[C@@H](CC(N)=O)C(=O)N[C@@H](CO)C(=O)N[C@@H](Cc1ccccc1)C(=O)N[C@@H](CO)C(=O)N[C@@H](CCC(N)=O)C(=O)O		72 µM	
CC(=O)N[C@@H](Cc1cnc[nH]1)C(=O)N[C@@H](CO)C(=O)N[C@H](C(=O)N[C@@H](CC(C)C)C(=O)N[C@H](C=O)CCC(N)=O)[C@@H](C)O	> 50 µM		
CC(=O)N[C@@H](CC(=O)O)C(=O)N[C@@H](CO)C(=O)N[C@@H](Cc1ccccc1)C(=O)N[C@@H](CC(=O)O)C(=O)N[C@@H](CCC(N)=O)C(=O)O		41 µM	
CC(=O)N[C@@H](CC(N)=O)C(=O)N[C@@H](CO)C(=O)N[C@H](C(=O)N[C@@H](CO)C(=O)N[C@H](C=O)CCC(N)=O)[C@@H](C)O	7.5 µM	40 µM	
